The results in this text go back to a melting point compilation (Tetko et al.; mined from patent text by program, amines drawn as free bases though some values may be those of a salt).

SMILES strings stand for the structures. A value given as a limit tells only on which side of the number the result lay.

What is called melting point is the temperature of the solid-liquid transition. Regarding `CNCc1ccc(C2CCN(c3c(F)c(N)c4c(=O)c(C(=O)O)cn(C5CC5)c4c3F)C2)cc1` (stereo not given), the melting point was in the range of 201 to 205 °C.

`O=C(Nc1ccc(C(=O)N2Cc3ccccc3Nc3ccccc32)c(Cl)c1)c1ccccc1-c1ccccc1`: the melting point fell in the range of 158 to 184 °C.

`CCOC(=O)c1cc(O)n(-c2ccccc2)n1` came in with a melting point of 183 to 184 °C. `CS(=O)(=O)n1cc(-c2ccccc2)c(=O)n1-c1ccccn1` yielded a melting point of 112 to 114 °C. On to `CC1(C)CC(=O)C2=C(C1)NC1=C(C(=O)CC(C)(C)C1)C2c1cccc(OCc2ccncc2)c1`, for which the melting point lay within 156 to 158 °C. With `N=C(NO)c1ccc(-c2ccc(-c3ccc(C(=N)NO)o3)cc2)o1`, the melting point is over 300 °C. In the case of `O=c1c(Br)c(OCc2ccc(Cl)cc2F)cnn1-c1ccc(Cl)c(Cl)c1`, the melting point fell in the range of 172 to 173 °C. Then `O=S(=O)(c1ccc(Cl)cc1)c1ccc(-c2ccccc2)cc1`, with 169 °C; and `Nc1ncc(-c2ccccc2)nc1Sc1ccc(Cl)cc1`, with 158 to 160 °C; and `Cc1c(CC(F)(F)C(F)(F)C(F)(F)F)c(-c2ccc(S(N)(=O)=O)cc2)c2n1CCC2`, with 221 °C. Under `CCCc1ccc2oc(Cc3ccc(OC)cc3)c(C)c2c1O` stands 83 to 96 °C; under `CN(C)c1cccc(CN2C(=O)C3(COc4cc5c(cc43)OCCO5)c3ccccc32)n1` (stereo not given), 196 to 197 °C. The compound `COc1cc(C)nc(NC(N)=S)n1` registered a melting point of 220 °C. In turn, `CSc1ccc(-c2nc(SC)c(C#N)c(=O)n2-c2ccc(Cl)cc2)cc1` came in with a melting point of 203 to 205 °C. With `Cc1ccccc1C(=O)Nc1nc(C(Cl)(Cl)Cl)ns1`, the melting point came to 170 °C.

`COc1cccc2c1OC(C(C)C)C2=O` (stereo not given) came in with a melting point of 46 to 47 °C. With `CC1=C(CCN(O)C(N)=O)c2cc(F)ccc2/C1=C\c1ccc(S(C)(=O)=O)cc1`, the melting point was 187 °C. Consider `COc1cc2c(cc1OC)CCCC(C(=O)N1CCN(Cc3cc(OC)c(OC)c(OC)c3)CC1CCCO)=C2` (stereo not given), for which the melting point was 144 to 145 °C. Consider `CC(C)(C(=O)c1ccc(Cl)cc1)n1ncn(-c2ccc(N3CCN(Cc4ccccc4)CC3)cc2)c1=O`, for which the melting point was 150 °C.

`COc1ccc(COC(=O)NC(CO)Cc2ccc(O)cc2)cc1OC` (stereo not given) had a melting point of 152 to 155 °C. `CC1CCN2C(=O)c3ccccc3NC(=O)C12` (stereo not given) came in with a melting point of 117 to 118 °C. `CCN1C(=O)C(=CC=C2C=C(c3ccc(OC)cc3)C=C3N2c2ccccc2C3(C)C)SC1=S`: the melting point is 210 to 211 °C. With `c1cnc2ccc(Cn3nnc4ccc(-c5cn[nH]c5)nc43)cc2c1`, the melting point lay in the range of 215 to 218 °C. For the compound `O=C(O)Cc1ccc2ncsc2c1`, the melting point lay in the range of 147 to 149 °C. Then `CCOC(=O)CCc1[nH]c2cccc3c2c1CC1C3CC(NC(=O)N(CC)CC)CN1C` (stereo not given), with 160 to 161 °C; and `CCCOc1nc2ccc(Cl)cc2c(=O)n1CCC`, with 64 to 66 °C. Consider `CC(C)(C)c1nc(C=CC(COc2ccccc2)=NO)nc(C(C)(C)C)c1O`, for which the melting point lay within 130 to 135 °C. The compound `NC(=O)[C@H](CO)Nc1nc(SCc2cccc(F)c2F)nc2nc(N)sc12` gave a melting point of 145 to 151 °C. In the case of `CCCCOC(=O)CNC(=O)c1nc2ccc(OC)cc2cc1OCc1ccccc1`, the melting point fell in the range of 90 to 92 °C. Under `Cc1ccc(-c2ccc(S(C)(=O)=O)cc2)n1-c1ccc(-c2ccoc2)c(Cl)c1` stands 165 to 168 °C; under `Cc1oc2ccccc2c1C(=O)c1ccc(Cl)c(N)c1`, 103 °C.

Compound `COc1ccc2cc([C@H](C)C(=O)SCCCCO[N+](=O)[O-])ccc2c1` returned a melting point of 30 to 35 °C.

As to `CC1(C)C(C#N)C1(C)C`, the melting point was determined as 17 °C. In turn, `COCc1nc2c(C(=O)c3cccnc3Oc3cccc(Cl)c3)ccc(OC)c2[nH]1` had a melting point of 181 to 183 °C. `CCCNC(=S)c1ccc2c(c1)N([C@H](C)CN1CCC[C@@H](C)C1)c1ccccc1S2` (racemic): the melting point was 126 °C. Under `CCCCc1ncc(CC(Cc2ccccc2)C(=O)OC)n1Cc1ccccc1Cl` (stereo not given) stands 118 to 120 °C; under `CCOC(=O)C(=O)Nc1ccc(Br)c2cccnc12`, 152 °C; under `CCc1nn(-c2ccc(F)cc2)c2cc(Br)ccc12`, 72 to 73 °C.

`CN(C)CCCN(C)C(=O)C(Cc1ccccc1)NC(=O)c1cc2cc(Cl)ccc2[nH]1` (stereo not given) had a melting point of 187 to 190 °C. Then `CN1CC(CCCl)c2nc3ccccc3n2C1=O` (stereo not given), with 88 to 91 °C. Turning to `COc1cn([C@H](C)c2cccc3ccccc23)c(=O)o1`, the melting point was in the range of 89 to 91 °C. Then `C=CCNc1nc(CO)cs1`, with 74 to 75 °C; and `COCc1nc(-c2ccc(C(F)(F)F)cc2)ncc1COc1ccc(OC(C)(C)C(=O)O)c(C)c1`, with 120 to 121 °C. The compound `CC(=O)O[C@H]1CC[C@H](CCCCCCC(=O)O)CC1` gave a melting point of 66 to 68 °C. In the case of `Cc1ccc(-c2nc(Cl)cc(N3CCN(C)CC3)n2)cc1`, the melting point fell in the range of 93 to 95 °C. `N#Cc1ccc(CC[C@H]2CC[C@H](CO)CC2)cc1` came in with a melting point of 119 to 121 °C. For `Oc1ccc2nc(-c3ccc(O)c4ccccc34)oc2c1`, the melting point was 194 to 196 °C. In the case of `O=C1CCC(N2Cc3c(OCc4ccc(CN5CCOCC5)cc4)cccc3C2=O)C(=O)N1` (stereo not given), the melting point lay within 206 to 208 °C. `CCOC(Cc1ccc(OCCN2C(=O)COc3ccccc32)cc1)C(=O)O` (stereo not given) showed a melting point of 90 to 93 °C.

`O=C(O)C(=O)c1ccc(OCCOc2ccc3ccccc3c2)c(Cl)c1` yielded a melting point of 167 to 168 °C. The compound `C=Cc1cnc(-c2ncccn2)nc1` had a melting point of 150 °C.

Turning to `COc1ccc(OCc2ccccn2)cc1/C=C/c1cc(/C=C/c2ccc3cc[nH]c3c2)n[nH]1`, the melting point lay in the range of 111 to 120 °C. In the case of `Oc1ccc(-c2cc3c(Cl)c(O)ccc3o2)cc1`, the melting point lay within 210 to 214 °C. Under `COC(=O)c1ccc(F)c(S(N)(=O)=O)c1` stands 127 to 129 °C. In turn, `CCC(CC)Nc1nnc(-c2ccccc2)c2ccccc12` registered a melting point of 210 °C.

With `CCCNC(=O)Nc1ccc(N2CCOCC2)cc1C(=O)NCC1CCN(C(c2ccccc2)c2ccccc2)CC1`, the melting point lay in the range of 215 to 217 °C.

For `COc1ccc(CNc2n[nH]cc2C(=O)O)cc1OC1CCCC1`, the melting point was 134 to 136 °C. For `CCOC(=O)c1c(N)[nH]c2cccc(Cl)c12`, the melting point is 140 to 142 °C. Under `O=C(Nc1ccc2c(c1)CCC2)OCc1ccccc1` stands 56 to 59 °C; under `C#CCOc1ccccc1-n1cnc2cc(Nc3nnc(C)c4ccccc34)ccc21`, 88 to 90 °C. `Cn1c(CO)nc2cc(Cl)cnc21`: the melting point was in the range of 141 to 142 °C. Under `O=Cc1cc2cc(Cl)c(Cl)cc2nc1Cl` stands 190 to 191 °C; under `CCCc1c(OCCCCCOc2ccc(C(=O)CCCC(=O)O)cc2CCC(=O)O)ccc2c1OCCC2=O`, 151 to 154 °C. With `Cc1ccc(-c2nc(C)c(C)c(Cl)n2)cc1`, the melting point stood at 165 °C. Regarding `C(=Cc1ccccc1)COC(CCc1ccccc1)Cn1ccnc1` (stereo not given), the melting point lay in the range of 116 to 119 °C. Regarding `Cn1ncc2[nH]c3cccc(F)c3c(=O)c21`, the melting point is over 300 °C. Compound `CSCc1cc(N)ccc1N1C(=O)c2ccc(Cl)cc2C1=O` displayed a melting point of 134 to 137 °C. Then `O=C(NC1CCCCCCC1)NS(=O)(=O)c1ccc(CCNC(=O)N2CCCCC2=O)cc1`, with 170 to 172 °C; and `Cc1ccc(S(=O)(=O)N2C(C)CN3C(=O)c4ccccc4C32c2ccc(F)cc2)cc1` (stereo not given), with 215 to 217 °C; and `Cc1ncc(CCCOc2c(C)cc(-c3nnn(C)n3)cc2C)s1`, with 86 to 88 °C. For `COc1ccc(-c2cc3c(n2-c2ccc(O)c(C(=O)O)c2)CCCC3)cc1`, the melting point was in the range of 219 to 221 °C. `NCc1ccc2c(c1)nc(CN1C(=O)N(C3CC3)Cc3ccccc31)n2CCCC(F)(F)F`: the melting point amounted to 154 °C.

Regarding `COc1ccc2c(c1)NC1(CCN(C(C)=O)CC1)c1cccn1-2`, the melting point was in the range of 211 to 213 °C. As to `COC(=O)c1cc(Cl)c(NC(C)=O)cc1OC(C)=O`, the melting point is 134 to 136 °C. For the compound `CC(C)c1ccc(S(=O)(=O)n2c(CO)cc3cc(C(F)(F)F)ccc32)cc1`, the melting point stood at 112 °C. `Cn1cc(-c2cccc(Cl)c2)c(=O)c(-c2cccc(C(F)(F)F)c2)c1` registered a melting point of 133 to 135 °C. `CC(C)(C)NC(=O)C(NC(C)(C)C)=C1CCCC1` registered a melting point of 80 to 83 °C. Turning to `CCc1c2s[nH]c(=O)c2c(=O)n2ccc(N3CCC(N(C)C)C3)cc12` (stereo not given), the melting point fell in the range of 217 to 219 °C. Take `COc1ccc(-c2cnc3ccc(-c4nnc(SCc5cccc(C(F)(F)F)c5)o4)cn23)cc1`: the melting point lay within 104 to 105 °C. With `CC(C)c1oc(-c2ccc(F)cc2)nc1CC(=O)O`, the melting point was in the range of 137 to 138 °C. `CCCCCCCCCCCCCCCCCC(=O)NCCCSc1ccncc1` showed a melting point of 88 to 89 °C. In turn, `O=C1Nc2cc(Cl)ccc2OC1CCO` (stereo not given) yielded a melting point of 135 to 138 °C. Turning to `COCCc1nc2c(N)nc3ccccc3c2n1CCCNS(=O)(=O)c1ccc(C)cc1`, the melting point lay in the range of 189 to 191 °C. As to `Cc1cc2c(c(C(=O)O)c1)OCC2`, the melting point lay in the range of 177 to 179 °C. Consider `O=C(O)c1cnc2ccc(Cc3ccccc3)cc2c1`, for which the melting point fell in the range of 203 to 205 °C.

Take `CC(C)C1(C)N=C(c2ccc(O)cn2)NC1=O` (stereo not given): the melting point lay in the range of 252 to 254 °C. Then `N=C(N)NCCCCOc1ccc2c(c1)NC(=O)C(CCC(=O)O)C2` (stereo not given), with 176 to 177 °C. Under `CCn1nnc(-c2ccc(CN3CCC(C(O)(c4ccc5c(c4)OC(F)(F)O5)c4ccc5c(c4)OC(F)(F)O5)CC3)cc2)n1` stands 79 to 81 °C. Then `COc1ccc2c(CCC3CCN(C(=O)OC(C)(C)C)CC3)noc2c1`, with 95 to 96 °C; and `CC(C)c1ccc(-c2ncc(-c3cccc(C(=O)O)c3)s2)cc1`, with 237 to 239 °C.
